From PubChem BioAssay AID624129 (Sanford-Burnham Center for Chemical Genomics, 2012)
Calls of active or inactive are those of the source. The rule behind the calls is not given here.

Target: C-X-C chemokine receptor type 6 (Homo sapiens) (UniProt O00574)
Assay: potency against CXCR6 with APJ panel – cell-based, beta-arrestin, DiscoveRx, uHTS hits, dose response (AID 624129)
Conditions: CXCR6 beta-arrestin (DiscoveRx) antagonist cell assay; for outcome: CXCR6, dose range 1
[1] = CXCR6, dose range 1, mean IC50 across replicates
[2] = CXCR6, run 2, dose range 1, at 79 µM (top of the series)

C-X-C chemokine receptor type 6 (Homo sapiens), sequence (O00574 whole entry, looked up): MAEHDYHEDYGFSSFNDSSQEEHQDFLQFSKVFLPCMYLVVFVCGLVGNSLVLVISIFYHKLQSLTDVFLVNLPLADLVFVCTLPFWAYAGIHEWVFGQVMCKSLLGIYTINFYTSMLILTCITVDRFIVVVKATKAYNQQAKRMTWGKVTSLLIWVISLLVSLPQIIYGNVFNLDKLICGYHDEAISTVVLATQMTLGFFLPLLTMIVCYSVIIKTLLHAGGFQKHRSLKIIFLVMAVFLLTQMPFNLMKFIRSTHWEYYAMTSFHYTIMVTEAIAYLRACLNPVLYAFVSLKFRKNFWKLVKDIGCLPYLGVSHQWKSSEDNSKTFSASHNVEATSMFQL

Row | SMILES | outcome | IC50 [1] [µM] | IC50 (CXCR6, run 1, dose range 2) [µM] | inhibition (CXCR6, run 2, dose range 1, at 39.5 µM (top of the series)) [%] | IC50 (CXCR6, run 2, dose range 2) [µM] | inhibition [2] [%]
1 | CCN(CC(=O)NC(C)(C)C)Cc1nc2c(Br)cc(Br)cc2c(=O)[nH]1 | inactive | 13.1 | 12.4 | 74.7 | 13.8 | –
2 | CCCNC(=O)c1nnsc1S(=O)c1ccc(Cl)cc1 (stereo not given) | inactive | 11.7 | 11.8 | – | 11.7 | 112
3 | Cc1c(N=Nc2c(O)[nH]c(=S)[nH]c2=O)c(=O)n(-c2ccccc2)n1C | inactive | 22.5 | 16.4 | – | 28.6 | 107
4 | O=C(Nc1ccc(F)cc1)c1nc(S(=O)(=O)Cc2ccccc2)ncc1Cl | inactive | 12.9 | 12.5 | – | 13.4 | 112
5 | O=C(NC(=S)Nc1ccccc1O)c1cncc(Br)c1 | inactive | 28.4 | 24.7 | – | 32 | 70.2
6 | CCOC(=O)[C@]12Cc3cc(Cl)ccc3[C@H]1N(C1CCCCC1)C(=O)c1cc(OC)ccc12 | inactive | 17.8 | 16.2 | – | 19.5 | 113
7 | COC(=O)c1ccccc1-c1c2ccc(=N)cc-2oc2cc(N)ccc12 | inactive | 17.8 | 17.1 | – | 18.6 | 88.3
8 | CCC(=O)OCCNc1cc(SCCC(=O)OC)c2nonc2c1[N+](=O)[O-] | inactive | 22.5 | 21.5 | – | 23.5 | 108
9 | Nc1cccc2c1C(=O)N(C(=O)/C=C/c1cccc(F)c1)C2=O | inactive | 51 | 65.1 | – | 37 | 98.3
10 | Cc1ccc(NC(=O)c2nc(S(=O)(=O)Cc3ccccc3)ncc2Cl)cc1 | inactive | 15.3 | 15.2 | – | 15.5 | 111
11 | Cc1ccccc1CS(=O)(=O)c1ncc(Cl)c(C(=O)Nc2ccc(F)cc2)n1 | inactive | 17.1 | 15.4 | – | 18.9 | 109
12 | CCCCC(=O)NC(=S)NNC(=O)c1ccc(OC)cc1 | inactive | 11.5 | 10.2 | – | 12.9 | 98
13 | O=[N+]([O-])c1cc2no[n+]([O-])c2cc1N1CCCCC1 | inactive | 12 | 12.2 | – | 11.9 | 112
14 | COc1ccc(CNC(=O)c2nc(S(=O)(=O)Cc3ccccc3)ncc2Cl)cc1 | inactive | 17.9 | 15.1 | – | 20.7 | 108
15 | COc1cc(/C=C/[N+](=O)[O-])ccc1OC(=O)c1cc2ccccc2oc1=O | inactive | 11.6 | 12.1 | – | 11.2 | 112
16 | CN(C)CC1CC/C(=C\c2ccc(O)cc2)C1=O (stereo not given) | inactive | 14 | 14.3 | – | 13.8 | 111
17 | COC(=O)c1ccc(C)c(-n2c(=O)n(Cc3ccccc3)c(=O)c3[nH]cnc32)c1 | inactive | 12.9 | 11.6 | – | 14.1 | 73
18 | CC1=C(CO)C(=O)OC([C@@H](C)C2CC[C@H]3C4C[C@H]5O[C@]56[C@@H](O)C=CC(=O)[C@]6(C)C4CC[C@]23C)C1 (stereo not given in full) | inactive | 14 | 12.2 | – | 15.8 | 112
19 | Cc1ccc(NC(=O)c2nc(S(=O)(=O)Cc3ccccc3C)ncc2Cl)cc1C | inactive | 13.7 | 13 | – | 14.3 | 104
20 | Cc1ccc(NC(=S)NNc2ncc(C(F)(F)F)cc2Cl)cc1 | inactive | 13.5 | 10.4 | – | 16.6 | 105
21 | COc1cc(C2C(C#N)=C(N)Oc3n[nH]c(-c4cccnc4)c32)cc(Br)c1O (stereo not given) | inactive | 28.7 | 24.6 | – | 32.8 | 86.6
22 | O=C(COc1ccc(Br)cc1Cl)NC(=S)N1CCc2ccccc21 | inactive | 17.3 | 14.8 | – | 19.7 | 94.9
23 | COc1ccc(-c2nn(C)c(=O)c3ccccc23)cc1NC(=O)Cn1nc(C)c2ccccc2c1=O | inactive | 34.5 | 21.8 | – | 47.2 | 72.1
24 | Cc1cc(O)c(-c2cc(O)c(C)cc2O)cc1O | inactive | 14 | 13.6 | – | 14.4 | 114

Row | SMILES | outcome | IC50 [1] [µM] | IC50 (CXCR6, run 1, dose range 2) [µM] | inhibition (CXCR6, run 2, dose range 1, at 39.5 µM (top of the series)) [%] | IC50 (CXCR6, run 2, dose range 2) [µM] | inhibition [2] [%]
25 | C=CCN(CC=C)C(=S)NC(=O)c1ccc(C)c(Br)c1 | inactive | 12.6 | 11.7 | – | 13.4 | 65.4
26 | Cc1ccc(NC(=O)C2=C(c3ccccc3)S(=O)(=O)CCS2(=O)=O)cc1 | inactive | 16.9 | 16.4 | – | 17.4 | 108
27 | CCCc1cc(=O)oc2cc(OC(=O)CN3C(=O)NC4(CCCC4)C3=O)ccc12 | inactive | 50.5 | 50.5 | – | > 79 | 61.7
28 | Cc1ccc(CS(=O)(=O)c2ncc(Cl)c(C(=O)Nc3ccc(OC(F)F)cc3)n2)cc1 | inactive | 12.6 | 12.6 | – | > 79 | 105
29 | COc1ccc(C(=O)N/N=C/c2cccc3cccnc23)cc1 | inactive | 13.5 | 12.6 | – | 14.5 | 60.1
30 | C=CCn1c(=O)c2c(nc3n2CC(C)CN3c2cccc(OC)c2)n(C)c1=O (stereo not given) | inactive | 19.5 | 18.3 | – | 20.7 | 66.1
31 | COc1ccc(C(=O)/C=C/Sc2nc3ccccc3o2)cc1 | inactive | 44.8 | 21.7 | – | 67.8 | 61.3
32 | Cc1ccccc1CS(=O)(=O)c1nnc([C@H](Cc2ccccc2)NC(=O)OC(C)(C)C)o1 | inactive | 15.9 | 16 | – | 15.7 | 110
33 | O=C(C#Cc1ccccc1)c1ccccc1 | inactive | 11.3 | 10.9 | – | 11.6 | 113
34 | CC(=O)Nc1nc2ccccc2n1CCOc1ccccc1Cl | inactive | 11.9 | 8.79 | – | 15 | 80.9
35 | COc1cc(N2C(=O)C=CC2=O)ccc1N1C(=O)C=CC1=O | inactive | 15.8 | 12.7 | – | 18.9 | 112
36 | CCOC(=O)c1ccc(NC(=O)c2nc(S(=O)(=O)Cc3ccccc3)ncc2Cl)cc1 | inactive | 12.9 | 12.3 | – | 13.5 | 111
37 | O=C1C=CC(=O)N1CCCCCCCCCCN1C(=O)C=CC1=O | inactive | 16.5 | 15.1 | – | 18 | 111
38 | COC(=O)c1ccc(CCc2cc(O)c(Br)cc2O)cc1 | inactive | 43.1 | 19.5 | – | 66.8 | 111
39 | COc1ccc(-c2c(C(=O)c3ccccc3)[nH]c(N)c2C(=O)c2ccc(Br)cc2)cc1OC | inactive | 17.4 | 16.4 | – | 18.4 | 86.6
40 | O=C(Nc1ccccc1)c1nnsc1S(=O)c1ccc(Cl)cc1 (stereo not given) | inactive | 11.5 | 11.9 | – | 11.2 | 111
41 | N#Cc1c([N+](=O)[O-])cc([N+](=O)[O-])cc1S(=O)(=O)Cc1ccccc1 | inactive | 11.8 | 11.1 | – | 12.6 | 114
42 | CC(=O)OC1CCC2(C)C(CCC3C4CC=C(C(C)=O)C4(C)OC(=O)CC32)C1 (stereo not given) | inactive | 24.2 | 22.6 | – | 25.7 | 96.2
43 | O=C(NC(=S)Nc1ccccc1O)c1cccnc1 | inactive | 30.3 | 30.3 | – | > 79 | 58.4
44 | COc1ccc(-n2nnnc2S(=O)(=O)CC(=O)N2CCCCC2)cc1 | inactive | 19 | 19.3 | – | 18.8 | 97.5
45 | Cc1nnc(Sc2cc(NCCO)c([N+](=O)[O-])c3nonc23)s1 | inactive | 12.1 | 9.44 | – | 14.7 | 114
46 | COc1cc(/C=C(\C#N)c2nc3ccccc3o2)ccc1O | inactive | 35.5 | 28.8 | – | 42.1 | 73.9
47 | C=CC[n+]1c(-c2ccc(Cl)cc2Cl)csc1Nc1c(C)n(C)n(-c2ccccc2)c1=O | inactive | 40 | 29.2 | – | 50.8 | 101
48 | CCCOc1ccc(CN(CCC#N)C(=S)NC(=O)c2ccccc2)cc1 | inactive | 20 | 10.4 | – | 29.6 | 68.9
